{"source": "patent US20240165123A1", "about": "“USE OF A COMPOUND CONTAINING A TRICYCLIC HETEROARYL GROUP” (CSPC Zhongqi Pharmaceutical Technology (Shijiazhuang) Co., …, priority 2021, published 2024)", "key": {"[1]": {"assay": "Toxicity test of oral gavage administration in Beagle dogs, 28 consecutive days", "format": "in vivo", "conditions": "for AUC: NOAEL 3 mg/kg/time BID, 28-day test", "protocol": "According to the general toxicology study in accordance with the NMPA “Good Laboratory Practice for Non-clinical Laboratory Studies” and FDA GLP specification (21CFR Part 58), and in line with the requirements of International Conference on Harmonization of Technical Requirements for Registration of Pharmaceuticals for Human Use (ICH) and the NMPA relevant guidelines, the toxicology study on Compound (I) was carried out to provide safety data support for the use of Compound (I) in clinical patients. The administration mode and the experimental results were as follows: […]"}, "[2]": {"assay": "Phase I clinical trial, single ascending dose", "format": "in vivo", "conditions": "human; single ascending dose up to 240 mg", "protocol": "Compound (I) had no effect on the central nervous system, respiratory system and cardiovascular system of animals, and was expected to have no side effects on the central nervous system, respiratory system and cardiovascular system of human. The NOAEL of single administration to rats was 2000 mg/kg, the MTD of administration to Beagle dogs was 500 mg/kg/time (1000 mg/kg/day), the NOAEL of repeated administration to rats for 28 days was 10 mg/kg/time (20 mg/kg/day), and the NOAEL of repeated administration to Beagle dogs for 28 days was 3 mg/kg/time (6 mg/kg/ day). […] The effective dose for rats was 3 mg/kg/time bid. According to the exposure, Compound (I) had 1-fold safety window in Beagles and 8-13-fold safety window in SD rats. According to the dose calculation, Compound (I) had 3-fold safety windows in both Beagle dogs and SD rats. The proposed and undetermined initial ascending dose of Compound (I) in the first-in-human trial was 15 mg. […] Therefore, according to the pre-clinical toxicological study data of Compound (I), the single ascending doses of phase I clinical trial to be carried out were 15 mg, 45 mg, 60 mg, 90 mg, 135 mg, 180 mg, 240 mg, 300 mg and 360 mg."}}, "data": [{"smiles": "NC(=O)c1cnc(Nc2ccc3c(c2)OC[C@H]2CN(S(=O)(=O)C4CC4)CCN32)nc1NC1CC1", "note": "[Compound (I), (R)-4-(cyclopropylamino)-2-((3-(cyclopropylsulfonyl)-1,2,3,4,4a,5-hexahydrobenzo[b]pyrazolo[1,2-d][1,4]oxazin-8-yl)amino)pyrimidine-5-arboxamide]", "values": [{"measurement": "Genotoxicity", "setting": "Genotoxicity", "value": "no genotoxicity"}, {"measurement": "Safety window, dose method", "setting": "[1]; Beagle dogs, NOAEL 28-day test vs rat effective dose", "value": 3, "unit": "fold"}, {"measurement": "Safety window, exposure method", "setting": "[1]; Beagle dogs, NOAEL 28-day test vs rat effective dose exposure", "value": 1, "unit": "fold"}, {"measurement": "Safety window of human equivalent dose of NOAEL relative to the human initial dose", "setting": "[1]; beagle, dog, in vivo, 28 days", "value": 14, "unit": "fold"}, {"measurement": "NOAEL at 28 days", "setting": "[1]; beagle, dog, in vivo, po", "value": 6, "unit": "mg/kg/day"}, {"measurement": "NOAEL of repeated administration for 28 days", "setting": "[1]; dog, in vivo, po", "value": 3, "unit": "mg/kg/time"}, {"measurement": "AUC", "setting": "[1]; female, beagle, dog, in vivo, po, dogs ♀", "value": 3930, "unit": "ng·h/mL"}, {"measurement": "AUC", "setting": "[1]; male, beagle, dog, in vivo, po, dogs ♂", "value": 3300, "unit": "ng·h/mL"}, {"measurement": "Human equivalent dose (based on 60 kg body weight)", "setting": "[1]; of NOAEL for 28-day test of dogs", "value": 210, "unit": "mg"}, {"measurement": "Safety in phase I clinical trial", "setting": "[2]", "value": "no safety issues above Level 3"}]}]}
